Reference: article PMC2775099 (Bioorganic & medicinal chemistry, 2009)

Molecular target: rat nNOS (Rattus norvegicus, UniProt P29476)
Conditions: for potency with nNOS relative to 1: amine in the chain replaced with ether or amide

Cc1cc(N)nc(CC2CNCC2OCCNC(=O)Cc2cccc(F)c2)c1 (stereo not drawn) [compound 6, N-(2-(4-((6-Amino-4-methylpyridin-2-yl)-methyl)pyrrolidin-3-yloxy)ethyl)-2-(3-fluorophenyl)acetamide]
potency with nNOS relative to 1: significant loss in potency

Cc1cc(N)nc(CC2CNCC2NC(=O)CNCCc2cccc(F)c2)c1 (stereo not drawn) [compound 3, N-(4-((6-Amino-4-methylpyridin-2-yl)-methyl)-pyrrolidin-3-yl)-2-(3-fluorophenethylamino)-acetamide]
loss of binding affinity relative to 1 (nNOS, amine replaced with amide): 3-4 fold

Cc1cc(N)nc(CC2CNCC2NCCOCCc2cccc(F)c2)c1 (stereo not drawn) [compound 4, 6-((4-(2-(3-Fluorophenethoxy)ethylamino)pyrrolidin-3-yl)methyl)-4-methyl-pyridin-2-amine]
potency with nNOS relative to 1: significant loss in potency
